Measurements from patent publication US20250161414A1, “METHOD FOR IMPROVING AUDITORY PERCEPTION USING A VIPR1 INHIBITOR” (ST. JUDE CHILDREN'S RESEARCH HOSPITAL, INC., priority 2022, published 2025).
Where two headings read alike, the source gives them in different places. No end group written: not given here.

Columns and labels:
[1] = Frequency discrimination (auditory) acuity test, pre-pulse inhibition of acoustic startle response (FDT); format: in vivo, mouse; details: Gad2Cre, i.p., compared to vehicle
Method: (§1) Mouse Behavioral Tests: Frequency Discrimination (Auditory) Acuity Test. Pitch-discrimination acuity was assessed using pre-pulse inhibition (PPI) of the acoustic startle response via a hardware-computer interface (Kinder Scientific, Chula Vista, CA), according to established methods (Aizenberg et al. (2015) PLOS Biol. 13:e1002308; Blundon et al. (2017) Science 356:1352-1356). In brief, a background pure tone (16.4 kHz) was played at a sound pressure level (SPL) of 70 dB throughout the session, unless otherwise noted. Each session was split into four blocks. Block 1 included a 5-minute acclimation period in which the background tone was played. Block 2 included nine startle trials in which a 120-dB SPL, 20-ms white noise (WN) burst was played. Block 3 included prepulse trials and 10 startle-only trials in a pseudo-random order. Each pre-pulse trial included a 70-dB SPL 80-ms pre-pulse (pure-tone frequency was 0%, 1%, 2%, 4%, 8%, 16%, or 32% lower than that of the background tone), followed by a 120-dB SPL, 20-ms WN startle pulse, and then returned to the background tone after the startle. Every trial in Block 3 was presented 10 times. […] PPI percentage was calculated from Block 3 data as follows: [1−(pre-pulse trial/average startle only trial)]*100. […] FDT values were then analyzed using a t-test, a one-way ANOVA, or a paired t-test, as appropriate. […]

[2] = Acoustic startle response (ASR); format: in vivo, mouse; details: C21 i.p., either genotype (Gad2Cre; WT or Gad2Cre; CD+/-)
Method: as §1

[3] = system: hM4Di-expressing cortical FS interneurons; test: Current-clamp recording from hM4Di-expressing (mCitrine+) cells in acute cortical slices; format: cell-based, mouse; details: bath application
Method: Single-Cell Electrophysiology: Auditory Thalamocortical Brain Slices. Acute primary thalamocortical (TC) slices (400-μm thick) containing the left ACx and the left ventral part of the medial geniculate nuclei (MGv) of the thalamus were prepared as previously described (Chun et al. (2014) Science 344:1178-1182; Cruikshank et al. (2002) J. Neurophysiol. 87:361-384). Briefly, mouse brains were removed and placed in cold (4° C.) dissecting medium containing 125 mM choline-Cl, 2.5 mM KCl, 0.4 mM CaCl2, 6 mM MgCl2, 1.25 mM NaH2PO4, 26 mM NaHCO3, and 20 mM glucose (300-310 mosm), equilibrated with 95% O2/5% CO2. […] If recorded in current-clamp mode, pyramidal neurons were additionally verified as regularly spiking. […]
Single-Cell Electrophysiology: Whole-Cell Recording. Whole-cell recordings were made with patch pipettes (3-5 MOhm) using a Multiclamp 700B amplifier, digitized (10 kHz) with a Digidata 1440, and recorded using pCLAMP 10 software (all Molecular Devices, San Jose, CA). […] In voltage-clamp recordings, series resistance, input resistance, and holding current were monitored for stability. […] Input resistance and membrane resting voltage were monitored during recordings. […] Drugs were added to ACSF or locally applied via continuous pressure ejection from a large-diameter pipette placed in the slice near the recorded cell. […]

[4] = system: FS interneurons in the ACx; test: Whole-cell current-clamp recording of FS interneuron excitability (rheobase, current ramp) in auditory thalamocortical slices; format: cell-based, mouse; details: for PG 97-269 rheobase shift (difference between rheobase before and after application) / PG 97-269 rheobase shift: FS interneurons
ACx excitatory neurons = format: cell-based, mouse
ACx interneurons = test: Whole-cell voltage-clamp recording of inward voltage-gated current threshold (voltage ramp) in ACx interneurons; format: cell-based, mouse; details: Gtf2ird1+/- and Gtf2ird1-/- cortical interneurons compared to WT interneurons

**Q.** With c1ccc2c(c1)N=C(N1CCNCC1)c1ccccc1N2 [C21] as the compound, how does the “FDT (frequency-discrimination threshold)” value ([1]; CD+/- mice expressing hM4Di in ACx interneurons) read?
**A.** Its value is “significantly increased”.

**Q.** And the “FDT (frequency-discrimination threshold)” value ([1]; WT mice expressing hM4Di in ACx interneurons)?
**A.** Its value is “not different”.

**Q.** And the ASR [2]?
**A.** The ASR was “not affected”.

**Q.** What about the “number of action potentials elicited by depolarizing current injections” value [3] of the same compound?
**A.** Its value is “decreased”.

**Q.** With “[Ala^11,22,28]-VIP (HSDAVFTDNYARLRKQMAVKKALNSILA; ends and bridges not checked; UniProt P01282 125-152, looked up, variant T11A Y22A N28A) [VIPR1-specific agonist]” as the compound, how does the “effect of VIPR1-specific agonist on interneurons” value ([4]; WT or CD+/- interneurons, brain slices) read?
**A.** The value was “no significant effect”.

**Q.** Which “difference in sEPSC frequencies between WT and CD+/- ACx excitatory neurons after application” value (ACx excitatory neurons; L4 ACx excitatory neurons) does the source give for picrotoxin here?
**A.** The value was “abolished”.

**Q.** What does the source list for “[Acetyl-His^1, D-Phe^2, Lys^15, Arg^16, Leu^17] VIP (1-7)/GRF (8-27) hybrid with C-terminal amidation (HFDAVFTNSYRKVLKRLSARKLLQDIL; HELM PEPTIDE1{[ac].H.[dF].D.A.V.F.T.N.S.Y.R.K.V.L.K.R.L.S.A.R.K.L.L.Q.D.I.L.[am]}$$$$V2.0; SMILES CC[C@H](C)[C@H](NC(=O)[C@H](CC(=O)O)NC(=O)[C@H](CCC(N)=O)NC(=O)[C@H](CC(C)C)NC(=O)[C@H](CC(C)C)NC(=O)[C@H](CCCCN)NC(=O)[C@H](CCCNC(=N)N)NC(=O)[C@H](C)NC(=O)[C@H](CO)NC(=O)[C@H](CC(C)C)NC(=O)[C@H](CCCNC(=N)N)NC(=O)[C@H](CCCCN)NC(=O)[C@H](CC(C)C)NC(=O)[C@@H](NC(=O)[C@H](CCCCN)NC(=O)[C@H](CCCNC(=N)N)NC(=O)[C@H](Cc1ccc(O)cc1)NC(=O)[C@H](CO)NC(=O)[C@H](CC(N)=O)NC(=O)[C@@H](NC(=O)[C@H](Cc1ccccc1)NC(=O)[C@@H](NC(=O)[C@H](C)NC(=O)[C@H](CC(=O)O)NC(=O)[C@@H](Cc1ccccc1)NC(=O)[C@H](Cc1c[nH]cn1)NC(C)=O)C(C)C)[C@@H](C)O)C(C)C)C(=O)N[C@@H](CC(C)C)C(N)=O) [PG 97-269, VIPR1-specific antagonist]”?
**A.** effect on excitability of FS interneurons ([4]; ACx of Gtf2ird1+/- and Gtf2ird1-/- mice compared to WT mice): either a diminished or no effect; effect on excitability of FS interneurons ([4]; CD+/- cortex, interneurons already hyperexcitable): no additional effect; PG 97-269 rheobase shift (difference between rheobase before and after application) ([4]; CD+/- mice): not significantly different from 0; PG 97-269 rheobase shift ([4]; Gtf2ird1+/- mice): did differ from 0; PG 97-269 rheobase shift ([4]; Gtf2ird1-/- mice): did not significantly differ from 0; PG 97-269 rheobase shift (difference between rheobase before and after application) ([4]; WT mice): significantly less than 0; PG 97-269 threshold shift (ACx interneurons): significantly reduced

**Q.** Which “difference in sEPSC frequencies between WT and CD+/- ACx excitatory neurons after application” value (ACx excitatory neurons) does the source give for NC1=N[C@H](O)[C@H]2[C@H]3O[C@]4(O)O[C@@H]([C@@H](O)[C@@]2(N1)[C@@H]4O)[C@]3(O)CO [tetrodotoxin] here?
**A.** The value was “abolished”.
